A short description of this series: OECD 301D Closed Bottle Test (evaluation of ultimate biodegradability). The following applies: 60% or more biodegraded two weeks from start of decomposition, test period of 28 days. The source says:
Measuring of the ultimate biodegradability was made by taking an OECD 301D Closed Bottle Test (a test for determining whether or not 60% or more can be biodegraded two weeks from the time when the sample begins decomposing during the test period of 28 days) on cationic surfactants prepared in EXAMPLES 1 to 8, dimethyl dialkyl ammonium chloride, and imidazoline ester. The ultimate biodegradabilities of cationic surfactants of EXAMPLE 1, 2, 8, and conventional cationic surfactants were less than 60%, thereby not being readily biodegradable.

With dimethyl dialkyl ammonium chloride, the Readily biodegradable result is “No”.

(Values after US6414170B1, “Preparation of cationic surfactants containing ester group in molecules” (LG Chemical Ltd., priority 1998, dated 2002).)
